This is an account of results in patent US20230339874A1, “PIPERAZINYL COMPOUNDS AND METHODS FOR TREATING NEMATODE INFECTIONS” (The Governing Council of the University of Toronto, priority 2020, published 2023).

As a reminder, the EC50 is the concentration needed to bring the measured effect to its halfway point. The term Ki denotes a measure of affinity in units of concentration, obtained from inhibition or displacement.

Assay [1] concerns Danio rerio (zebrafish) embryos. As to the kind of experiment: Danio rerio (zebrafish) embryo abnormal developmental phenotype. Type of assay: in vivo.
The test system of a further assay is C. elegans L3 larvae. As to the kind of experiment: C. elegans L3 larvae abnormal locomotory behaviour on solid agar. The settings on record: solid agar MYOB + E. coli OP50, mean of 4 replicates; for % C. elegans L3 larvae any phene 1 h (conc.): 1 h exposure; for % C. elegans L3 larvae any phene 6 h (conc.): 6 h exposure; for % C. elegans L3 larvae any phene 24 h (conc.): 24 h exposure.

Assay [2] relates to Pristionchus pacificus young adult animals. As to the kind of experiment: Pristionchus pacificus young adult abnormal locomotory behaviour on solid agar. In kind it is in vivo. The settings on record: read-out: P. pacificus, young adult 1 h any phene at 1 h (EC50 (μM)).
Assay [3] deals with D. immitis larval stage 3 (L3) worms. As to the kind of experiment: D. immitis L3 development assay. Type of assay: in vivo. The conditions noted are these: 72 h, read-out: D. immitis L3 development EC50 (μM).
For assay [4], the system named is Heligmosomoides polygyrus larval stage 3 (L3) worms. Type of assay: in vivo. The settings on record: 72 h incubation, one replicate.
For another assay, the target named is T1, rat VAChT (Rattus norvegicus, UniProt Q62666).
T1 sequence (Q62666 1-530): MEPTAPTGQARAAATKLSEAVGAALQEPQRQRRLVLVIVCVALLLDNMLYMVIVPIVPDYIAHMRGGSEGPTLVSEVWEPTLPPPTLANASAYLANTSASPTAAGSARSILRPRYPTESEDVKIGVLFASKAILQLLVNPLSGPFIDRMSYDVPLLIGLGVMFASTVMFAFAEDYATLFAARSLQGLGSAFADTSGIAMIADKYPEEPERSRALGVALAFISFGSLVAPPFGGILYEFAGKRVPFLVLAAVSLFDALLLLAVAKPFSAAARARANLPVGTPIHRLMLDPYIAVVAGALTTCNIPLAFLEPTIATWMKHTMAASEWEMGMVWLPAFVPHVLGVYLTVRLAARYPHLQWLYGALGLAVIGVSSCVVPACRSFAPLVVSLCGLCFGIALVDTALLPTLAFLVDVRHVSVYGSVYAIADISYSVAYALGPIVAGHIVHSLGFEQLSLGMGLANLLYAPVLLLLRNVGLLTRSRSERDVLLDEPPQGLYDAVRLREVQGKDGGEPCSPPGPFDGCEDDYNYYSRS
As to the kind of experiment: Competition binding, displacement of [3H]vesamicol from rat VAChT. (Loss of bound radioactivity is the signal in a displacement assay; it reports binding, not function.)

Another assay relates to Strongyloides ratti L3. Type of assay: in vivo. The settings on record: 72 h incubation, 1 replicate.
A further assay deals with D. immitis microfilariae. As to the kind of experiment: D. immitis microfilariae immobility assay. In kind it is in vivo. The settings on record: 72 h, read-out: D. immitis microfilariae immobility EC50 (μM).
Setting [5] is: read-out: D. rerio (zebrafish) any phenotype EC50 (μM).
The mark [6] stands for this setting: displacement of [3H]vesamicol, rat VAChT expressed in P12 cells, read-out: ratVAChT Ki.

Like-named read-outs stand apart in the source and are kept apart here.

Experimental for C. elegans L3 larvae: 20 animals were scored after either 1, 6 or 24 hours of exposure to drug (as indicated) per replicate. […] Data are reported as the mean % of animals with abnormal phenotype over 4 independent replicates.

With `O=C(C1CCCCC1)N1CCN(c2ccc([N+](=O)[O-])cc2)CC1` [III-a], the EC50 is over 15 µM in assay [1] (1 day post fertilization embryos through 48 h of development, tested at 15 and 3.75 μM, select compounds at 60 and 30 μM, read-out: D. rerio (zebrafish) any phenotype EC50); over 60 µM in assay [2] (1 h exposure, tested at 3.75, 15 and 60 μM, NA = not active, no phenotype at 60 μM); over 50 µM in assay [3]. Further, the “% C. elegans L3 larvae any phene 1 h (conc.)” value in the assay on C. elegans L3 larvae (3.75 uM) came out at 0.8%; in the assay on C. elegans L3 larvae (15 uM), 0.8%; in the assay on C. elegans L3 larvae (60 uM), 4.2%. For the same compound, the “% C. elegans L3 larvae any phene 6 h (conc.)” value is given as 0.8% in the assay with C. elegans L3 larvae (3.75 uM), 5.8% in the assay with C. elegans L3 larvae (15 uM) and 24.2% with C. elegans L3 larvae (60 uM). The “% C. elegans L3 larvae any phene 24 h (conc.)” value in the assay with C. elegans L3 larvae (3.75 uM), in the assay on C. elegans L3 larvae (15 uM) and with C. elegans L3 larvae (60 uM) was 0.0% throughout.

With `Cc1ccc(N2CCN(C3CCC(C)C3)CC2)cc1` (stereo not shown) [VI-a], the figures for the EC50 in assay [1] (setting [5]) and in assay [3] were over 15 µM and over 50 µM, respectively. Besides, the “H. Polygyrus % lethality L3 25 μM” value in assay [4] was 31.6%. In addition, the “% C. elegans L3 larvae any phene 1 h (conc.)” value in the assay with C. elegans L3 larvae (3.75 uM) is listed as 58.3%; in the assay on C. elegans L3 larvae (15 uM), 98.3%; in the assay on C. elegans L3 larvae (60 uM), 100.0%. Further, the entries for the “% C. elegans L3 larvae any phene 6 h (conc.)” value in the assay on C. elegans L3 larvae (3.75 uM), in the assay with C. elegans L3 larvae (15 uM) and in the assay with C. elegans L3 larvae (60 uM) were 1.7%, 74.2% and 100.0%, respectively. Further, the “% C. elegans L3 larvae any phene 24 h (conc.)” value with C. elegans L3 larvae (3.75 uM) is on record as 0.0%; with C. elegans L3 larvae (15 uM), 20.0%; with C. elegans L3 larvae (60 uM) it was 100.0%. Also, the Ki on rat VAChT (setting [6]) amounted to 0.411 µM. Moreover, in the assay with Strongyloides ratti L3, the “S. ratti L3 % lethality 25 μM” value is given as 28.1%.

Take `Cc1ccc(N2CCN(CC3CC=CCC3)CC2)cc1` (stereo not shown) [VI-e]: the EC50 in assay [1] (setting [5]) was 32.5 µM; in assay [2] (1 h), 5.7 µM. For the same compound, the “H. Polygyrus % lethality L3 25 μM” value in assay [4] is given as 0%. Also, the “% C. elegans L3 larvae any phene 1 h (conc.)” value was 36.7% in the assay with C. elegans L3 larvae (3.75 uM), 96.7% in the assay with C. elegans L3 larvae (15 uM) and 100.0% in the assay on C. elegans L3 larvae (60 uM). Besides, the entries for the “% C. elegans L3 larvae any phene 6 h (conc.)” value in the assay on C. elegans L3 larvae (3.75 uM), with C. elegans L3 larvae (15 uM) and in the assay with C. elegans L3 larvae (60 uM) were 5.8%, 46.7% and 100.0%, respectively. Also, the results for the “% C. elegans L3 larvae any phene 24 h (conc.)” value in the assay with C. elegans L3 larvae (3.75 uM), in the assay on C. elegans L3 larvae (15 uM) and in the assay on C. elegans L3 larvae (60 uM) were 0.0%, 5.0% and 99.2%, respectively. On rat VAChT (setting [6]), the Ki was determined as 0.208 µM. Further, the “S. ratti L3 % lethality 25 μM” value in the assay with Strongyloides ratti L3 was 31.6%.

For the compound `Cc1cc(N2CCN(CC3CCCCC3)CC2)ccc1[N+](=O)[O-]` [V-b], the EC50 in assay [1] (setting [5]) is 5.1 µM; in the assay with D. immitis microfilariae it was 5.1 µM; in assay [2] (1 h) it was over 60 µM; in assay [3] it was 14 µM. Also, the “% C. elegans L3 larvae any phene 1 h (conc.)” value in the assay on C. elegans L3 larvae (3.75 uM) was 2.5%; in the assay with C. elegans L3 larvae (15 uM), 20.8%; with C. elegans L3 larvae (60 uM), 62.5%. Also, the “% C. elegans L3 larvae any phene 6 h (conc.)” value came out at 0.0% in the assay on C. elegans L3 larvae (3.75 uM), 3.3% in the assay on C. elegans L3 larvae (15 uM) and 41.7% in the assay on C. elegans L3 larvae (60 uM). Moreover, the entries for the “% C. elegans L3 larvae any phene 24 h (conc.)” value with C. elegans L3 larvae (3.75 uM), in the assay on C. elegans L3 larvae (15 uM) and in the assay with C. elegans L3 larvae (60 uM) were 0.0%, 0.0% and 9.2%, respectively.

In the case of `FC(F)(F)c1cccc(N2CCN(CC3CCCC3)CC2)c1` [VI-k], the EC50 in assay [1] (setting [5]) and in assay [2] (1 h) was over 60 µM throughout. Moreover, the “H. Polygyrus % lethality L3 25 μM” value in assay [4] amounted to 34.1%. In addition, the “% C. elegans L3 larvae any phene 1 h (conc.)” value with C. elegans L3 larvae (3.75 uM) stood at 18.3%; with C. elegans L3 larvae (15 uM), 94.2%; in the assay on C. elegans L3 larvae (60 uM), 95.0%. Also, the “% C. elegans L3 larvae any phene 6 h (conc.)” value is listed as 0.8% with C. elegans L3 larvae (3.75 uM), 30.8% with C. elegans L3 larvae (15 uM) and 70.0% in the assay with C. elegans L3 larvae (60 uM). Besides, the “% C. elegans L3 larvae any phene 24 h (conc.)” value is recorded as 0.0% with C. elegans L3 larvae (3.75 uM), 8.3% with C. elegans L3 larvae (15 uM) and 80.8% with C. elegans L3 larvae (60 uM). Further, at rat VAChT (setting [6]), the Ki is 6.68 µM. The “S. ratti L3 % lethality 25 μM” value in the assay on Strongyloides ratti L3 is reported as 0%.

As to `Cc1ccc(N2CCN(CC3CC4C=CC3C4)CC2)cc1` (stereo not shown) [VI-c], the EC50 in assay [1] (setting [5]) is 16.9 µM; in assay [3] it was over 50 µM. Also, the “H. Polygyrus % lethality L3 25 μM” value in assay [4] is listed as 7.6%. For the same compound, the entries for the “% C. elegans L3 larvae any phene 1 h (conc.)” value in the assay with C. elegans L3 larvae (3.75 uM), with C. elegans L3 larvae (15 uM) and in the assay on C. elegans L3 larvae (60 uM) were 33.8%, 100.0% and 100.0%, respectively. In addition, the figures for the “% C. elegans L3 larvae any phene 6 h (conc.)” value in the assay with C. elegans L3 larvae (3.75 uM), with C. elegans L3 larvae (15 uM) and in the assay with C. elegans L3 larvae (60 uM) were 7.5%, 64.2% and 84.2%, respectively. The “% C. elegans L3 larvae any phene 24 h (conc.)” value with C. elegans L3 larvae (3.75 uM) was determined as 0.0%; in the assay with C. elegans L3 larvae (15 uM), 10.0%; with C. elegans L3 larvae (60 uM) it was 100.0%. The Ki at rat VAChT (setting [6]) was determined as 0.159 µM. For the same compound, in the assay on Strongyloides ratti L3, the “S. ratti L3 % lethality 25 μM” value was 0%.

For `Cc1cc([N+](=O)[O-])ccc1N1CCN(CC2CCCCC2)CC1` [V-a], the values for the EC50 in assay [1] (setting [5]), in assay [2] (1 h) and in assay [3] were 5.1 µM, over 60 µM and 15 µM, respectively. Moreover, the “% C. elegans L3 larvae any phene 1 h (conc.)” value in the assay on C. elegans L3 larvae (3.75 uM) worked out at 15.8%; in the assay with C. elegans L3 larvae (15 uM) it was 33.3%; in the assay with C. elegans L3 larvae (60 uM), 63.3%. Moreover, the “% C. elegans L3 larvae any phene 6 h (conc.)” value in the assay on C. elegans L3 larvae (3.75 uM) worked out at 0.0%; with C. elegans L3 larvae (15 uM) it was 15.8%; with C. elegans L3 larvae (60 uM), 27.5%. Moreover, the “% C. elegans L3 larvae any phene 24 h (conc.)” value with C. elegans L3 larvae (3.75 uM), in the assay on C. elegans L3 larvae (15 uM) and in the assay on C. elegans L3 larvae (60 uM) was 0.0% throughout.

With `O[C@@H]1CCCC[C@H]1N1CCC(c2ccccc2)CC1` (racemic) [vesamicol, reference compound], the EC50 in assay [1] (setting [5]) is 21.1 µM; in assay [2] (1 h), over 60 µM. In addition, the “H. Polygyrus % lethality L3 25 μM” value in assay [4] is reported as 0%. Moreover, the “% C. elegans L3 larvae any phene 1 h (conc.)” value with C. elegans L3 larvae (3.75 uM) was found to be 0.0%; in the assay with C. elegans L3 larvae (15 uM) it was 0.0%; with C. elegans L3 larvae (60 uM) it was 11.7%. Further, the “% C. elegans L3 larvae any phene 6 h (conc.)” value in the assay with C. elegans L3 larvae (3.75 uM) is 0.0%; in the assay with C. elegans L3 larvae (15 uM), 0.8%; with C. elegans L3 larvae (60 uM) it was 1.7%. For the same compound, the “% C. elegans L3 larvae any phene 24 h (conc.)” value in the assay on C. elegans L3 larvae (3.75 uM), in the assay on C. elegans L3 larvae (15 uM) and with C. elegans L3 larvae (60 uM) was 0.0% in each case. For the same compound, at rat VAChT, affinity was put at a Ki of 0.0303 µM. In addition, the “S. ratti L3 % lethality 25 μM” value with Strongyloides ratti L3 came to 17.3%.

`FC(F)(F)c1cccc(N2CCN(C3CCCCCCC3)CC2)c1` [VI-i]: the EC50 in assay [1] (setting [5]) is 4 µM; in assay [2] (1 h) it was 49.6 µM; in assay [3], over 50 µM. Besides, in assay [4], the “H. Polygyrus % lethality L3 25 μM” value is reported as 11.2%. Also, the “% C. elegans L3 larvae any phene 1 h (conc.)” value in the assay on C. elegans L3 larvae (3.75 uM) was found to be 26.7%; with C. elegans L3 larvae (15 uM), 70.0%; in the assay with C. elegans L3 larvae (60 uM) it was 96.7%. In addition, the “% C. elegans L3 larvae any phene 6 h (conc.)” value is reported as 0.0% in the assay with C. elegans L3 larvae (3.75 uM), 0.0% in the assay with C. elegans L3 larvae (15 uM) and 58.3% in the assay on C. elegans L3 larvae (60 uM). For the same compound, the results for the “% C. elegans L3 larvae any phene 24 h (conc.)” value in the assay with C. elegans L3 larvae (3.75 uM), with C. elegans L3 larvae (15 uM) and in the assay with C. elegans L3 larvae (60 uM) were 0.0%, 0.0% and 5.0%, respectively. For the same compound, the “S. ratti L3 % lethality 25 μM” value in the assay with Strongyloides ratti L3 stood at 0%.
